In patent publication US11000033B2, “Ketone or oxime compound, and herbicide” (NISSAN CHEMICAL CORPORATION, priority 2014, dated 2021):

Key:
Assay type in all cases: in vivo
Setaria viridis = test: Test Example 4: herbicidal effect by soil treatment (symbol G)
How it was run: (§1)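 Seeds were sown in sterilized diluvial soil, covered with about 1.5 cm of soil, and the soil surface was sprayed with a water-diluted emulsion of the compound at a predetermined rate. Plants grew in a greenhouse at 25° C. to 30° C.; effects were scored visually 3 weeks after application.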

Scirpus juncoides [1] = test: Test Example 1: herbicidal activity, application before weed generation in submerged conditions (symbol B); conditions: application herbicide amount 320 g/ha
How it was run: (§2)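 In a flooded pot test with alluvial soil, the emulsion-formulated compound was diluted with water to a predetermined amount and applied to the floodwater immediately on the sowing day. Pots were held in a greenhouse at 25–30 °C for 3 weeks before each weed was rated.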

Alopecurus myosuroides [2] = test: Test Example 4: herbicidal effect by soil treatment (symbol J)
How it was run: as §1

beet = test: Test Example 4: effect on crop by soil treatment (symbol f); conditions: for f: beet, effect on crop grade: application herbicide amount 320 g/ha; for f: beet, effect grade on crop: 320 g/ha
How it was run: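 Soil-treatment setup: crop and weed seeds were spot-sown into sterilized diluvial soil, then buried beneath approximately 1.5 cm of it, and the boxes were housed in a 25–30° C. greenhouse.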

[3] = tested on: Echinochloa oryzacola Vasing.; test: Test Example 1: herbicidal activity, application before weed generation in submerged conditions (symbol A); conditions: application herbicide amount 320 g/ha
How it was run: as §2

soybean = test: Test Example 5: effect on crop by foliage application, plastic box (symbol d); conditions: 320 g/ha, 3 weeks after application
How it was run: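 Sterilized diluvial soil, plastic box (21 × 13 × 7 cm); spot sowing, ~1.5 cm soil cover; greenhouse 25–30° C.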

Scirpus juncoides [4] = test: Test Example 2: herbicidal activity, application during weed generation in submerged conditions (symbol B); conditions: Table 23; application herbicide amount 320 g/ha; grade 0-5 by criteria of Test Example 1
How it was run: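 Paddy pot test, submerged (4 cm water), alluvial soil, mixed sowing; greenhouse 25–30° C. Emulsion formulation diluted to predetermined rate, applied onto floodwater at 1–2 leaf stage. Visual herbicidal rating at 3 wk post-treatment.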

Alopecurus myosuroides [5] = test: Test Example 5: herbicidal effect by foliage application, plastic box (symbol J); conditions: 320 g/ha, 3 weeks after application
How it was run: (§3)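 Herbicide, formulated as an emulsion and diluted in water, is sprayed onto the aerial parts of 14-day seedlings. These were grown at 25° C. to 30° C. in sterilized diluvial soil; effects are graded after 3 weeks.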

transplanted rice plant = test: Test Example 1: effect on crop, application before weed generation in submerged conditions (symbol a); conditions: application herbicide amount 320 g/ha
How it was run: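 Rice at 2.5 leaf stage transplanted into submerged soil (4 cm depth) sown with three weed species; herbicide applied before weed emergence.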

Monochoria vaginalis = test: Test Example 1: herbicidal activity, application before weed generation in submerged conditions (symbol C); conditions: application herbicide amount 320 g/ha
How it was run: as §2

[6] = tested on: Echinochloa crus-galli var. crus-galli; test: Test Example 5: herbicidal effect by foliage application, plastic box (symbol H); conditions: 320 g/ha, 3 weeks after application
How it was run: as §3

Chenopodium album = test: Test Example 4: herbicidal effect by soil treatment (symbol O)
How it was run: as §1

[7] = application herbicide amount 320 g/ha

Row | SMILES | G: Setaria viridis, herbicidal effect grade (Setaria viridis; [7]) | Herbicidal effect grade, B: Scirpus juncoides (Scirpus juncoides [1]) | J: Alopecurus myosuroides, herbicidal effect grade (Alopecurus myosuroides [2]; [7]) | f: beet, effect on crop grade (beet) | Herbicidal effect grade, A: Echinochloa oryzacola Vasing. [3] | d: soybean, effect on crop grade (soybean) | Herbicidal effect grade, B: Scirpus juncoides (Scirpus juncoides [4]) | J: Alopecurus myosuroides, herbicidal effect grade (Alopecurus myosuroides [5]) | Effect grade on crop, a: transplanted rice plant (transplanted rice plant) | Herbicidal effect grade, C: Monochoria vaginalis (Monochoria vaginalis) | H: Echinochloa crus-galli var. crus-galli, herbicidal effect grade [6] | O: Chenopodium album, herbicidal effect grade (Chenopodium album; [7]) | G: Setaria viridis, herbicidal effect grade (Setaria viridis; 320 g/ha) | J: Alopecurus myosuroides, herbicidal effect grade (Alopecurus myosuroides [2]; 320 g/ha) | f: beet, effect grade on crop (beet) | d: soybean, effect on crop (criteria 0-5) (soybean) | J: Alopecurus myosuroides, herbicidal effect (criteria 0-5) (Alopecurus myosuroides [5]) | H: Echinochloa crus-galli var. crus-galli, herbicidal effect (criteria 0-5) [6] | O: Chenopodium album, herbicidal effect grade (Chenopodium album; 320 g/ha)
1 | CON=C(C)CC1CC(O)=C(c2c(C)cc(-c3ccc(C)cc3)cc2C)C1=O (mixture of isomers) [6-018] | 5 (Herbicidal ratio of 90% or more (almost completely withered)) | 5 (Herbicidal ratio of 90% or more (almost completely withered)) | 5 (Herbicidal ratio of 90% or more (almost completely withered)) | 0 (Herbicidal ratio of 5% or lower (almost no effect)) | 5 (Herbicidal ratio of 90% or more (almost completely withered)) | 3 (Herbicidal ratio of 40% or higher and lower than 70%) | 4 (Herbicidal ratio of 70% or higher and lower than 90%) | 5 (Herbicidal ratio of 90% or more (almost completely withered)) | 5 (Herbicidal ratio of 90% or more (almost completely withered)) | 4 (Herbicidal ratio of 70% or higher and lower than 90%) | 5 (Herbicidal ratio of 90% or more (almost completely withered)) | 0 (Herbicidal ratio of 5% or lower (almost no effect)) |  |  |  |  |  |  | 
2 | CON=C(C)CC1CC(O)=C(c2c(C)cc(-c3ccc(Cl)cc3)cc2C)C1=O (mixture of isomers) [6-029] | 5 (Herbicidal ratio of 90% or more (almost completely withered)) | 3 (Herbicidal ratio of 40% or higher and lower than 70%) | 5 (Herbicidal ratio of 90% or more (almost completely withered)) | 0 (Herbicidal ratio of 5% or lower (almost no effect)) | 5 (Herbicidal ratio of 90% or more (almost completely withered)) | 0 (Herbicidal ratio of 5% or lower (almost no effect)) | 3 (Herbicidal ratio of 40% or higher and lower than 70%) | 5 (Herbicidal ratio of 90% or more (almost completely withered)) | 5 (Herbicidal ratio of 90% or more (almost completely withered)) | 3 (Herbicidal ratio of 40% or higher and lower than 70%) | 5 (Herbicidal ratio of 90% or more (almost completely withered)) | 3 (Herbicidal ratio of 40% or higher and lower than 70%) |  |  |  |  |  |  | 
3 | CON=C(C)CC1CC(O)=C(c2c(C)cc(-c3cccc(Cl)c3)cc2C)C1=O (mixture of isomers) [6-034] | 5 (Herbicidal ratio of 90% or more (almost completely withered)) | 5 (Herbicidal ratio of 90% or more (almost completely withered)) | 5 (Herbicidal ratio of 90% or more (almost completely withered)) | 0 (Herbicidal ratio of 5% or lower (almost no effect)) | 5 (Herbicidal ratio of 90% or more (almost completely withered)) | 0 (Herbicidal ratio of 5% or lower (almost no effect)) | 5 (Herbicidal ratio of 90% or more (almost completely withered)) | 5 (Herbicidal ratio of 90% or more (almost completely withered)) | 5 (Herbicidal ratio of 90% or more (almost completely withered)) | 4 (Herbicidal ratio of 70% or higher and lower than 90%) | 5 (Herbicidal ratio of 90% or more (almost completely withered)) | 0 (Herbicidal ratio of 5% or lower (almost no effect)) |  |  |  |  |  |  | 
4 | CON=C(C)CC1CC(OS(=O)(=O)CC[Si](C)(C)C)=C(c2c(C)cc(C)cc2C)C1=O (stereo not drawn) [1-144] |  | 5 (Herbicidal ratio of 90% or more (almost completely withered)) |  |  | 5 (Herbicidal ratio of 90% or more (almost completely withered)) |  | 4 (Herbicidal ratio of 70% or higher and lower than 90%) |  | 5 (Herbicidal ratio of 90% or more (almost completely withered)) | 3 (Herbicidal ratio of 40% or higher and lower than 70%) |  |  | 5 (Herbicidal ratio of 90% or more (almost completely withered)) | 4 (Herbicidal ratio of 70% or higher and lower than 90%) | 0 (Herbicidal ratio of 5% or lower (almost no effect)) | 3 (Herbicidal ratio of 40% or higher and lower than 70%) | 5 (Herbicidal ratio of 90% or more (almost completely withered)) | 5 (Herbicidal ratio of 90% or more (almost completely withered)) | 0 (Herbicidal ratio of 5% or lower (almost no effect))
5 | CON=C(C)CC1CC(OC(=O)OCc2ccccc2)=C(c2c(C)cc(C)cc2C)C1=O (stereo not drawn) [1-145] |  | 5 (Herbicidal ratio of 90% or more (almost completely withered)) |  |  | 5 (Herbicidal ratio of 90% or more (almost completely withered)) |  | 5 (Herbicidal ratio of 90% or more (almost completely withered)) |  | 5 (Herbicidal ratio of 90% or more (almost completely withered)) | 1 (Herbicidal ratio of 5% or higher and lower than 20%) |  |  | 5 (Herbicidal ratio of 90% or more (almost completely withered)) | 5 (Herbicidal ratio of 90% or more (almost completely withered)) | 0 (Herbicidal ratio of 5% or lower (almost no effect)) | 2 (Herbicidal ratio of 20% or higher and lower than 40%) | 5 (Herbicidal ratio of 90% or more (almost completely withered)) | 5 (Herbicidal ratio of 90% or more (almost completely withered)) | 0 (Herbicidal ratio of 5% or lower (almost no effect))
6 | C=CCOC(=O)OC1=C(c2c(C)cc(C)cc2C)C(=O)C(CC(C)=NOC)C1 (stereo not drawn) [1-146] |  | 5 (Herbicidal ratio of 90% or more (almost completely withered)) |  |  | 5 (Herbicidal ratio of 90% or more (almost completely withered)) |  | 5 (Herbicidal ratio of 90% or more (almost completely withered)) |  | 5 (Herbicidal ratio of 90% or more (almost completely withered)) | 1 (Herbicidal ratio of 5% or higher and lower than 20%) |  |  | 5 (Herbicidal ratio of 90% or more (almost completely withered)) | 5 (Herbicidal ratio of 90% or more (almost completely withered)) | 3 (Herbicidal ratio of 40% or higher and lower than 70%) | 4 (Herbicidal ratio of 70% or higher and lower than 90%) | 5 (Herbicidal ratio of 90% or more (almost completely withered)) | 5 (Herbicidal ratio of 90% or more (almost completely withered)) | 0 (Herbicidal ratio of 5% or lower (almost no effect))
